Assay results reported in patent publication EP0665239A1, “Peptide derivatives of bactenecin endowed with antibacterial activity” (CONSIGLIO NAZIONALE DELLE RICERCHE, priority 1994, dated 1995).
Where two headings read alike, the source gives them in different places. No end group written: not given here.

How the values were obtained:
Format in all cases: cell-based
[1] = system: Escherichia coli ATCC 25922
Protocol: (§1) The antibacterial activity of the peptides of this invention was evaluated by determining the minimal inhibitory concentration (MIC) of bacterial growth.
(§2) Each peptide was incubated in microtitration plates, at concentrations that decreased form 320 to 0.1 micrograms/ml, in which the wells contained a final volume of 0.1 ml of Mueller-Hinton broth with 3-5x10⁴ bacteria at the semi-logarithmic growth phase.
(§3) In each experiment, the MIC of Bac5 and Bac7 were also measured, for the purpose of comparison.
(§4) In these assays, the following bacterial strains were used: Escherichia coli ATCC 25922, Salmonella typhimurium ATCC 14028, Klebsiella pneumoniae ATCC 13883 and Enterobacter cloacae ATCC 13047.

[2] = system: Salmonella typhimurium ATCC 14028
Protocol: as §1, §2, §3, §4

[3] = system: Enterobacter cloacae ATCC 13047
Protocol: as §1, §2, §3, §4

[4] = system: Klebsiella pneumoniae ATCC 13883
Protocol: as §1, §2, §3, §4

[5] = Escherichia coli ATCC 25922, Mueller-Hinton broth, 3-5x10⁴ bacteria, 16 hours at 37° C
[6] = Enterobacter cloacae ATCC 13047, Mueller-Hinton broth, 3-5x10⁴ bacteria, 16 hours at 37° C
[7] = Salmonella typhimurium ATCC 14028, Mueller-Hinton broth, 3-5x10⁴ bacteria, 16 hours at 37° C
[8] = Klebsiella pneumoniae ATCC 13883, Mueller-Hinton broth, 3-5x10⁴ bacteria, 16 hours at 37° C

Sequence | MIC ([1]; ATCC 25922) | MIC [1, 5] | MIC ([2]; ATCC 14028) | MIC ([2]; ATCC 14028, 16 h) | MIC ([3]; ATCC 13047) | MIC [3, 6] | MIC ([4]; ATCC 13883) | MIC ([4]; ATCC 13883, 16 h) | MIC ([1]; ATCC 25922, 16 h) | MIC [2, 7] | MIC ([3]; ATCC 13047, 16 h) | MIC [4, 8] | MIC ([1]; Escherichia coli ATCC 25922, MICs of Table 1 expressed in molar terms) | MIC ([2]; Salmonella typhimurium ATCC 14028, MICs of Table 1 expressed in molar terms) | MIC ([3]; Enterobacter cloacae ATCC 13047, MICs of Table 1 expressed in molar terms) | MIC ([4]; Klebsiella pneumoniae ATCC 13883, MICs of Table 1 expressed in molar terms)
RRIRPRPPRLPRPRPRPLPFPRPGPRPIPRPLPFP [Peptide A] | 0.3 µM | 1.2 µg/mL | 0.15 to 0.3 µM | 0.6 to 1.2 µg/mL | 0.15 µM | 0.6 µg/mL | 0.15 to 0.3 µM | 0.6 to 1.2 µg/mL | – | – | – | – | – | – | – | –
RFRPPIRRPPIRPPFYPPFRPPIRP [Peptide C] | 0.8 to 1.6 µM | – | 0.8 µM | – | 0.8 to 1.6 µM | – | 0.8 µM | – | 2.5 to 5 µg/mL | 2.5 µg/mL | 2.5 to 5 µg/mL | 2.5 µg/mL | – | – | – | –
RRIRPRPPRLPRPRPRPLPFPRP [Peptide B] | – | 1.2 to 2.5 µg/mL | – | – | – | 0.6 to 1.2 µg/mL | – | – | – | 0.6 to 1.2 µg/mL | – | 0.6 to 1.2 µg/mL | 0.4 to 0.8 µM | 0.2 to 0.4 µM | 0.2 to 0.4 µM | 0.2 to 0.4 µM
RRIRPRPPRLPRPRPRPL [Peptide D, Arg-Arg-Ile-Arg-Pro-Arg-Pro-Pro-Arg-Leu-Pro-Arg-Pro-Arg-Pro-Arg-Pro-Leu] | 1.0 µM | 2.5 µg/mL | 0.5 µM | – | 0.5 to 1.0 µM | – | 0.2 to 0.5 µM | 0.6 to 1.2 µg/mL | – | 1.2 µg/mL | 1.2 to 2.5 µg/mL | – | – | – | – | –
